Results published in patent US20240383875A1, “Benzimidazole Pyridine Derivatives” (Hoffmann-La Roche Inc., priority 2022, published 2024).

What was measured:
Format in all cases: biochemical
SIK3 = SIK3 (Homo sapiens, UniProt Q9Y2K2); experiment: Enzymatic activity assay SIK3, RapidFire mass spectrometry (phosphorylation of CHK-peptide); conditions: RapidFire MS, inhibition of SIK3; read-out: SIK3 RF IC50
How it was run: (§1)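 Compounds (12-point, 3-fold, generally 30 μM to 170 pM) were pre-incubated 30 min at ambient temperature with SIK1 (5 nM), SIK2 (0.5 nM) or SIK3 (1.5 nM) in HEPES pH 7.0/magnesium acetate buffer. CHK-peptide (10 μM solution) and ATP (100 μM solution) were then added for 45 min before formic acid quench.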

SIK1 = SIK1 (Homo sapiens, UniProt P57059); experiment: Enzymatic activity assay SIK1, RapidFire mass spectrometry (phosphorylation of CHK-peptide); conditions: RapidFire MS, inhibition of SIK1; read-out: SIK1 RF IC50
Chain of SIK1 (P57059 whole entry): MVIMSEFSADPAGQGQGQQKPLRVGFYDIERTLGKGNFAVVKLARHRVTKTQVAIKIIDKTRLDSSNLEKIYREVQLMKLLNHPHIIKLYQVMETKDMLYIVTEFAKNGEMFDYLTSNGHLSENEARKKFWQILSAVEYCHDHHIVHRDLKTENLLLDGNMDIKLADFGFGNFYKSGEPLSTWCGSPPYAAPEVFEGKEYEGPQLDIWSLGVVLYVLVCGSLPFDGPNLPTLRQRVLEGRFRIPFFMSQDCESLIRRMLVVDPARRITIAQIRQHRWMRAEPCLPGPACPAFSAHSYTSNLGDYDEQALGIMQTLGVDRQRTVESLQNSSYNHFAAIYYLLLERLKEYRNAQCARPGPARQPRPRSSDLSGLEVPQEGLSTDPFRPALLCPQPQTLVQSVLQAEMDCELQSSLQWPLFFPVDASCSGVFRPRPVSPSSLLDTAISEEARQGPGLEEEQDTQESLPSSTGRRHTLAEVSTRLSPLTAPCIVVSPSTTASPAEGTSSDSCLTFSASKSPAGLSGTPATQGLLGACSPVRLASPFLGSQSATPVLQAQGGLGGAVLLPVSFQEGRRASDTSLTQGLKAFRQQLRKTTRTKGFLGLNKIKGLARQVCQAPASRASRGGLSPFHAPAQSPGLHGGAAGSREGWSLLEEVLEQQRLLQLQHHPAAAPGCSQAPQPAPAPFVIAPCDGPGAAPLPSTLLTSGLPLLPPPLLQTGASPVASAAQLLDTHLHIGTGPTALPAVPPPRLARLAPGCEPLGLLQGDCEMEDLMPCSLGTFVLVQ
How it was run: as §1

SIK2 = SIK2 (Homo sapiens, UniProt Q9H0K1); experiment: Enzymatic activity assay SIK2, RapidFire mass spectrometry (phosphorylation of CHK-peptide); conditions: RapidFire MS, inhibition of SIK2; read-out: SIK2 RF IC50
Chain of SIK2 (Q9H0K1 whole entry): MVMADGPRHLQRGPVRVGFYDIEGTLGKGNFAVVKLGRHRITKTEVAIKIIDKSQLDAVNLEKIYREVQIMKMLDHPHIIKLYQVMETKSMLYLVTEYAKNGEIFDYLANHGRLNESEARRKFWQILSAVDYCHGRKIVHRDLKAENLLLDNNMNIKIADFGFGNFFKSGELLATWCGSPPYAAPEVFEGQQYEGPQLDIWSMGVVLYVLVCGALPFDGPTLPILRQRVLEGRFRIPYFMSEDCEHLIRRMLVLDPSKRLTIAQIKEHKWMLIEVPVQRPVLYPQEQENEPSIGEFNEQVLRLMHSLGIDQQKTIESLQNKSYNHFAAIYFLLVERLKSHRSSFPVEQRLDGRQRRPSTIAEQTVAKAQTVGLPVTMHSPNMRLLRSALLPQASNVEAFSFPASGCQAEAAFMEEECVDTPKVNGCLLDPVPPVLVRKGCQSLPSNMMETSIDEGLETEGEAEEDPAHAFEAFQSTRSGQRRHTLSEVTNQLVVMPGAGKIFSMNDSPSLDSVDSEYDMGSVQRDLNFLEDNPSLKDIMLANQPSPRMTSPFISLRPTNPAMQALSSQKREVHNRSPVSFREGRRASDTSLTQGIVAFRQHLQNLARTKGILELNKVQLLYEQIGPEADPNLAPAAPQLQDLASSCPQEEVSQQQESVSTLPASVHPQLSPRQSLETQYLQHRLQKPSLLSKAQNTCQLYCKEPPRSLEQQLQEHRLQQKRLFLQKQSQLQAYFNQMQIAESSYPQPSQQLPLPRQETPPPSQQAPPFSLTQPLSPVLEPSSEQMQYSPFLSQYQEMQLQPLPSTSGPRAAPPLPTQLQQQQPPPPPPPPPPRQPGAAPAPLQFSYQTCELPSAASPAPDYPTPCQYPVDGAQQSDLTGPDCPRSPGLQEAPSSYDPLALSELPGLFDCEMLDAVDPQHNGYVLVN
How it was run: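 SIK2 (0.5 nM) in pH 7.0 HEPES buffer with 10 mM Mg acetate phosphorylates CHK-peptide (10 μM solution) with 100 μM ATP solution, 45 min ambient, then formic acid quench.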

Chain of SIK3 (Q9Y2K2 whole entry): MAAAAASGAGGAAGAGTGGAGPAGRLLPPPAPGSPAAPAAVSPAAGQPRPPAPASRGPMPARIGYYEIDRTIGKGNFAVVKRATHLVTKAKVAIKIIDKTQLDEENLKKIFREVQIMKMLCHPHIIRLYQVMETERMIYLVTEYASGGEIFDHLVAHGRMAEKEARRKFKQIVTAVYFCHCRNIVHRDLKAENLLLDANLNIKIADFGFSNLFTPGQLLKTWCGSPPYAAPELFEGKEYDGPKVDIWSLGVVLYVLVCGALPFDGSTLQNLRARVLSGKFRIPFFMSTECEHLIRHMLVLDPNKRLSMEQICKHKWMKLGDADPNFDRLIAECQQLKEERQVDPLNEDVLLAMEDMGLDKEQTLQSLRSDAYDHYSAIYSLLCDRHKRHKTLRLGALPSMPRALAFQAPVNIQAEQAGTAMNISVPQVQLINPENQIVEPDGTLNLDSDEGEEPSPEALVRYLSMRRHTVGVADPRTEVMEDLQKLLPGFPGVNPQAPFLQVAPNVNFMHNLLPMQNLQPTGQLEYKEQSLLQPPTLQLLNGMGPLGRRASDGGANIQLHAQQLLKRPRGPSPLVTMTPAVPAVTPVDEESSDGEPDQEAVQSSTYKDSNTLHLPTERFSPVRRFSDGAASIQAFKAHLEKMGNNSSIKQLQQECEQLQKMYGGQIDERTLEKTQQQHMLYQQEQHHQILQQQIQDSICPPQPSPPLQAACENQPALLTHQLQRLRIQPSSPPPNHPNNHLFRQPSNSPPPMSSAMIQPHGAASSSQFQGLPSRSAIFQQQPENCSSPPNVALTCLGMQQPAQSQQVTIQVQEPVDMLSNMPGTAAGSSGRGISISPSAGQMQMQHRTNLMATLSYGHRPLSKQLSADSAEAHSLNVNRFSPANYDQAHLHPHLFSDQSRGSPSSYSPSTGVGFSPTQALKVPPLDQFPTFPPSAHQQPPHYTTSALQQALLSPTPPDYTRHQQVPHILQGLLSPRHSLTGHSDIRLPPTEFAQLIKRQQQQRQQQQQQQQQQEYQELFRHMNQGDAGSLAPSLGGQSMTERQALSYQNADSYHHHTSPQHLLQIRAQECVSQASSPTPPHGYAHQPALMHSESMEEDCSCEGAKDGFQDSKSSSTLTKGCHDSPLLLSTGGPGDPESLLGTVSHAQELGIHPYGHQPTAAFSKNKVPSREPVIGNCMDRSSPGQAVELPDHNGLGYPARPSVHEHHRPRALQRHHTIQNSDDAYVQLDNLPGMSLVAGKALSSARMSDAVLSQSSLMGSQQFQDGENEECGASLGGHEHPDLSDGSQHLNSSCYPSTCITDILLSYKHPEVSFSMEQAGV

Compound	IC50 (SIK3)	IC50 (SIK1)	IC50 (SIK2)
Cc1cc(C#N)nn1-c1nc(-n2cnc3cc(Nc4ccc(C5COC5)nn4)ccc32)ccc1C(C)O (stereo not drawn) [Example 228, 1-[3-(1-Hydroxyethyl)-6-[5-[[6-(oxetan-3-yl)pyridazin-3-yl]amino]benzimidazol-1-yl]-2-pyridyl]-5-methyl-pyrazole-3-carbonitrile]	0.0009 µM	0.091 µM	0.001 µM
Cc1ccc(Nc2cc3c(cc2F)ncn3-c2ccc(C(C)O)c(-n3nc(C(F)F)cc3C)n2)c(F)c1F (stereo not drawn) [Example 362, 1-[6-[6-(2,3-difluoro-4-methyl-anilino)-5-fluoro-benzimidazol-1-yl]-2-[3-(difluoromethyl)-5-methyl-pyrazol-1-yl]-3-pyridyl]ethanol]	0.0267 µM	0.012 µM	0.0087 µM
Cc1ccc(Nc2ccc3c(c2)ncn3-c2ccc(C(C)O)c(C(=O)NCC(F)(F)F)n2)nn1 (stereo not drawn) [Example 124, 3-(1-Hydroxyethyl)-6-[5-[(6-methylpyridazin-3-yl)amino]benzimidazol-1-yl]-N-(2,2,2-trifluoroethyl)pyridine-2-carboxamide; formic acid]	0.0101 µM	1.52 µM	0.036 µM
Cc1cc(-c2nc(-n3cnc4cc(Nc5ccc(C)nn5)ccc43)ccc2C(C)O)cnn1 (stereo not drawn) [Example 135, 1-[2-(6-Methylpyridazin-4-yl)-6-[5-[(6-methylpyridazin-3-yl)amino]benzimidazol-1-yl]-3-pyridyl]ethanol]	0.167 µM	27.7 µM	0.589 µM
Cc1ccc(Nc2ccc3c(c2)ncn3-c2ccc(C(O)C(F)(F)F)c(-n3nc(C#N)cc3C)n2)nn1 (stereo not drawn) [Example 148, 5-Methyl-1-[6-[5-[(6-methylpyridazin-3-yl)amino]benzimidazol-1-yl]-3-(2,2,2-trifluoro-1-hydroxy-ethyl)-2-pyridyl]pyrazole-3-carbonitrile]	0.0012 µM	0.663 µM	0.0103 µM
CCn1nc(C(F)(F)F)cc1-c1nc(-n2cnc3cc(Nc4ccc(C)nn4)ccc32)ccc1C(C)O (stereo not drawn) [Example 250, 1-[2-[2-Ethyl-5-(trifluoromethyl)pyrazol-3-yl]-6-[5-[(6-methylpyridazin-3-yl)amino]benzimidazol-1-yl]-3-pyridyl]ethanol]	0.0048 µM	0.985 µM	0.0252 µM
1-[6-[6-fluoro-5-[(5-fluoro-6-methyl-3-pyridyl)amino] benzimidazol-1-yl]-3-(1-hydroxyethyl)-2-pyridyl]-5-methyl-pyrazole-3-carbonitrile [Example 389]	0.0051 µM	0.042 µM	0.0079 µM
Cc1ccc(Nc2ccc3c(c2)ncn3-c2ccc(C(C)O)c(O[C@H]3CCNC3)n2)nn1 (stereo partly drawn) [Example 208, 1-[6-[5-[(6-Methylpyridazin-3-yl)amino]benzimidazol-1-yl]-2-[(3S)-pyrrolidin-3-yl]oxy-3-pyridyl]ethanol]	0.0048 µM	0.462 µM	0.0297 µM
COc1cc2ncn(-c3ccc(CO)c(N4CCOCC4)n3)c2cc1OC [Example 26, (6-(5,6-Dimethoxy-1H-benzo[d]imidazol-1-yl)-2-morpholinopyridin-3-yl)methanol]	1.44 µM	0.806 µM	0.699 µM
Cc1cc(C#N)nn1-c1nc(-n2cnc3cc(N[C@H]4CNC[C@H]4F)c(F)cc32)ccc1C(C)O (stereo partly drawn) [Example 166, 1-[6-[6-Fluoro-5-[[(3S,4R)-4-fluoropyrrolidin-3-yl]amino]benzimidazol-1-yl]-3-(1-hydroxyethyl)-2-pyridyl]-5-methyl-pyrazole-3-carbonitrile; formic acid]	0.0408 µM	0.681 µM	0.0832 µM

More lines, in order of falling IC50 (SIK3), values ahead:

IC50 (SIK3)	IC50 (SIK1)	IC50 (SIK2)	Compound
0.0702 µM	23.8 µM	0.306 µM	Cc1ccc(Nc2ccc3c(c2)ncn3-c2ccc(C(C)O)c(-c3c(C)noc3C)n2)nn1 (stereo not drawn) [Example 159, 1-[2-(3,5-Dimethylisoxazol-4-yl)-6-[5-[(6-methylpyridazin-3-yl)amino]benzimidazol-1-yl]-3-pyridyl]ethanol]
0.0119 µM	0.001 µM	0.0012 µM	Cc1ccc(Nc2ccc3ncn(-c4ccc(C(C)O)c(-n5nc(C#N)c6c5CCN(C)C6)n4)c3c2)nn1 (stereo not drawn) [Example 291, 1-[3-(1-hydroxyethyl)-6-[6-[(6-methylpyridazin-3-yl)amino]benzimidazol-1-yl]-2-pyridyl]-5-methyl-6,7-dihydro-4~{H}-pyrazolo[4,3-c]pyridine-3-carbonitrile]
0.0071 µM	2.77 µM	0.0364 µM	Cc1ccc(Nc2ccc3c(c2)ncn3-c2ccc(C(C)O)c(-c3cncc(C#N)c3)n2)nn1 (stereo not drawn) [Example 118, 5-[3-(1-Hydroxyethyl)-6-[5-[(6-methylpyridazin-3-yl)amino]benzimidazol-1-yl]-2-pyridyl]pyridine-3-carbonitrile; formic acid]
0.007 µM	2.12 µM	0.0067 µM	Cc1ccc(Nc2cc3ncn(-c4ccc(CO)c(-n5nc(C(F)F)cc5C)n4)c3cc2F)nn1 [Example 319, [2-[3-(difluoromethyl)-5-methyl-pyrazol-1-yl]-6-[6-fluoro-5-[(6-methylpyridazin-3-yl)amino]benzimidazol-1-yl]-3-pyridyl]methanol]
0.0058 µM	0.595 µM	0.0124 µM	Cc1ccc(Nc2ccc3c(c2)ncn3-c2ccc(C(C)O)c(-c3cc(C4CC4)ncc3C)n2)nn1 (stereo not drawn) [Example 289, 1-[2-(2-cyclopropyl-5-methyl-4-pyridyl)-6-[5-[(6-methylpyridazin-3-yl)amino]benzimidazol-1-yl]-3-pyridyl]ethanol]
0.0042 µM	2.21 µM	0.0068 µM	Cc1cc(C(=O)N(C)C)c(Nc2ccc3c(c2)ncn3-c2ccc(C(C)O)c(-n3nc(C#N)cc3C)n2)nn1 (stereo not drawn) [Example 219, 3-[[1-[6-(3-Cyano-5-methyl-pyrazol-1-yl)-5-(1-hydroxyethyl)-2-pyridyl]benzimidazol-5-yl]amino]-N,N,6-trimethyl-pyridazine-4-carboxamide]
0.0026 µM	0.616 µM	0.0104 µM	Cc1ccc(Nc2ccc3c(c2)ncn3-c2ccc(C(C)O)c(-n3nc(C)cc3C#N)n2)nn1 (stereo not drawn) [Example 104, 2-[3-(1-Hydroxyethyl)-6-[5-[(6-methylpyridazin-3-yl)amino]benzimidazol-1-yl]-2-pyridyl]-5-methyl-pyrazole-3-carbonitrile]
0.0026 µM	0.027 µM	0.0037 µM	Cc1cc(C#N)nn1-c1nc(-n2cnc3cc(Nc4ccc(OC5COC5)nn4)ccc32)ccc1C(C)O (stereo not drawn) [Example 207, 1-[3-(1-Hydroxyethyl)-6-[5-[[6-(oxetan-3-yloxy)pyridazin-3-yl]amino]benzimidazol-1-yl]-2-pyridyl]-5-methyl-pyrazole-3-carbonitrile]
0.0022 µM	0.447 µM	0.0077 µM	CCOc1cc(C)n(-c2nc(-n3cnc4cc(Nc5ccc(C)nn5)ccc43)ccc2C(C)O)n1 (stereo not drawn) [Example 133, 1-[2-(3-Ethoxy-5-methyl-pyrazol-1-yl)-6-[5-[(6-methylpyridazin-3-yl)amino]benzimidazol-1-yl]-3-pyridyl]ethanol; formic acid]
0.0017 µM	0.019 µM	0.001 µM	Cc1ccc(Nc2cc3ncn(-c4ccc(C(C)O)c(-n5nc(OC(F)F)cc5C)n4)c3cc2OC2COC2)nn1 (stereo not drawn) [Example 357, 1-[2-[3-(difluoromethoxy)-5-methyl-pyrazol-1-yl]-6-[5-[(6-methylpyridazin-3-yl)amino]-6-(oxetan-3-yloxy)benzimidazol-1-yl]-3-pyridyl]ethanol]
